Source: patent US20250243219A1, “MACROCYCLIC COMPOUNDS AND USES THEREOF” (Cypralis Limited, priority 2022, published 2025)

Key:
[1] = molecular target: cyclophilin A (Homo sapiens (Human), UniProt P62937); assay: Functional peptidyl prolyl isomerase (PPIase) spectrophotometric assay, cyclophilin A; type: biochemical; settings: first value of CypA/D cell
Excerpt: (§1) Cyclophilins are enzymes that catalyse the cis-trans isomerisation of peptide bonds to the amino acid proline. This event is important in many biological processes, including protein folding and signal transduction. […] The method to measure this activity and its inhibition is similar to that described by Jankowski (Analytical Biochemistry, 252, 2, 299-307 (1997)). The assay measures the cis to trans isomerisation of a peptide substrate catalysed by a PPlase enzyme using a UV/Vis spectrophotometer. This assay is a manual single cuvette-based assay. A first order rate equation is fitted to the absorbance data to obtain a rate constant. The catalytic rate is calculated from the enzymatic rate minus the background rate. The Ki (the concentration required to produce half maximum inhibition) for an inhibitor is obtained from the rate constant plotted against the inhibitor concentration. Typically, a 6-point dose response curve is obtained from duplicates and a Ki determined. Data are given in Table 5 as Ki [nM] for cyclophilins A and D, expressed in column 2 of Table 5 as Ki (cypA)/Ki (cypD).

[2] = molecular target: cyclophilin D (Homo sapiens (Human), UniProt P30405); assay: Functional peptidyl prolyl isomerase (PPIase) spectrophotometric assay, cyclophilin D; type: biochemical; settings: second value of CypA/D cell; read-out: Ki CypD
Sequence of cyclophilin D (P30405 30-207, species assumed): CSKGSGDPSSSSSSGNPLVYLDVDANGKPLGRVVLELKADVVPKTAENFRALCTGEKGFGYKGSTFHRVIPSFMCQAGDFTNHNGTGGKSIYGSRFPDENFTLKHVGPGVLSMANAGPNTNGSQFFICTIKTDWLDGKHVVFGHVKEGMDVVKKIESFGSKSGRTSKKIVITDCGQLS
Excerpt: as §1

[3] = test system: permeabilised HepG2 cells; assay: Calcium retention capacity (CRC) assay in permeabilised HepG2 cells (MPTP opening); type: cell-based, human; design: CRC [10 μM]: unit not given here; settings: compound at 10 μM; for CRC [10 μM]: digitonin permeabilised HepG2 cells; for CRC [10 μM] (ratio vs CsA): normalised to cyclosporin A, value in brackets
Experimental: The use of permeabilised cells means that inhibitory compounds that may not normally enter non-permeabilised cells are more likely to be active.
The calcium retention capacity (CRC) is a measure of the capability of mitochondria to retain calcium, primarily in the form of calcium phosphates, in the mitochondrial matrix.
In a CRC assay, the calcium indicator Calcium Green-5N (InVitrogen) is utilized. […] The assay is carried out in HepG2 (human hepatocellular carcinoma) cells which are digitonin permeabilized. Trains of calcium pulses (typically 5 μM additions) are added which results in a sudden increase in fluorescence which is then reduced by mitochondrial buffering. The cells will reach a point at which the calcium addition is no longer buffered, an indication that the MPTP has opened (mitochondrial permeability transition).
The experiment is performed with and without inhibitor. A compound that acts to inhibit the mitochondrial pore opening will result in a greater requirement for calcium to reach the transition point. The results are normalised to a positive control (cyclosporin A) in each experiment. The results are shown in column 3 of Table 5 as CRC [10 μM] (ratio vs CsA). The method of digitonin permeabilised whole cell CRC assay is similar to that used by Chiara et al. (PLoS One, March, 3, 3, e1852 (2008)).

[4] = test system: SH-SY5Y cells; assay: Thapsigargin treated cell death assay in SH-SY5Y cells; type: cell-based, human; settings: compound at 10 μM, positive = protection from cell death, negative = compound toxicity
Excerpt: Thapsigargin raises intracellular free calcium (Ca^2+) by potently inhibiting the endoplasmic reticulum Ca-ATPase, which sequesters Ca^2+ from the cytosol. The increased cytosolic Ca^2+ concentration is buffered by mitochondria by exchanging Ca^2+ for K, leading to depolarisation in the inner mitochondrial membrane and permeability transition.
The thapsigargin treated Jurkat cell death assay is a homogeneous 96 well plate based assay for cell death, instigated by the opening of the mitochondrial permeability transition pore (MPTP). The addition of thapsigargin to Jurkat cells results in an influx of calcium, the increase in intracellular calcium will initially be buffered by the mitochondria, but eventually the increasing calcium concentration will result in the opening of the MPTP, resulting in cell death.
CellTox™ Green is a dye which is unable to enter the cell until cell death leads to the loss of membrane integrity. Once this happens the CellTox™ Green enters the cell, binds to the cell's DNA and emits a fluorescent signal. […] Unless otherwise stated, the assay is typically run using a range of three compound concentrations of 1, 3 and 10 μM in triplicate and is read kinetically over a period of 24 hours. Compounds are added 30 minutes before the addition of thapsigargin. Compound only controls and positive control, cyclosporin A (CsA) (3 and 10 μM) are also included in the assay. Results are typically calculated at the 8 hour time point and the kinetic data is also reported.
The assay is carried out as described for the Jurkat cells but using the SH-SY5Y (human neuroblastoma) cell line instead of Jurkat cells. The results are shown in the fourth column of Table 5 (SY5Y [10 μM]% recovery). Positive numbers indicate protection from cell death, negative numbers indicate compound toxicity.

Sequence of cyclophilin A (P62937 whole entry, species assumed): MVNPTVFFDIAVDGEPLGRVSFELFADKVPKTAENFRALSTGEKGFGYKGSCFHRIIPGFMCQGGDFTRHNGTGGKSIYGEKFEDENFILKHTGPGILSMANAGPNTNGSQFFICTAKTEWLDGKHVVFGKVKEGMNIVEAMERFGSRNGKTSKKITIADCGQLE

SMILES | Ki [1] | Ki [2] | CRC [10 μM] [3] | CRC [10 μM] (ratio vs CsA) [3] | SYSY [10 μM] % recovery [4] | further results
COC[C@@]1(C)/C=C/c2ccc3ccc(nc3c2)N(C)NC(=O)[C@@H]2CCCN(N2)C(=O)[C@H](C)NC(=O)[C@H](C(C)C)OC1=O [Compound (13)] | 0.0049 µM | 0.011 µM | 35 | 0.95 | 8.4% | 
C[C@@H]1NC(=O)C(Cc2cccc(N)n2)OC(=O)C(C)(C)/C=C/c2ccc3ccc(nc3c2)N(C)NC(=O)[C@@H]2CCCN(N2)C1=O (single isomer, unassigned) [Compound (51)] |  |  |  |  |  | SYSY [10 μM] % recovery ([4]; listed as 51): 37%
C[C@@H]1NC(=O)[C@@H](CC2CCCNC2)OC(=O)C(C)(C)/C=C/c2ccc3ccc(nc3c2)N(C)N(C)C(=O)[C@@H]2CCCN(N2)C1=O (single isomer, unassigned) [Compound (33)] | 0.28 µM | 3.8 µM | 5 |  | 9% | CRC [10 μM] (ratio vs CsA) ([3]; listed as 33): 0.2
C[C@@H]1NC(=O)C(Cc2ccc(N)nc2)OC(=O)C(C)(C)/C=C/c2ccc3ccc(nc3c2)N(C)NC(=O)[C@@H]2CCCN(N2)C1=O (some centres unmarked) [Compound (43)] | 0.044 µM | 0.04 µM | 10 | 0.67 | 10% | 
C[C@@H]1NC(=O)[C@H](C[C@@H]2CCCN(C)C2)OC(=O)C(C)(C)/C=C/c2ccc3ccc(nc3c2)N(C)NC(=O)[C@@H]2CCCN(N2)C1=O [Compound (36)] | 0.39 µM | 1.4 µM | 7.5 | 0.42 | 19% | 
CC(C)[C@@H]1OC(=O)C(C)(C)/C=C/c2ccc3ccc(nc3c2)N(C)NC(=O)[C@@H]2CCCN(N2)C(=O)[C@H](CCC(=O)Nc2ccccc2)NC1=O [Compound (63)] | 0.011 µM | 0.015 µM | 30 | 1.00 | 48% | 
CC(C)[C@@H]1OC(=O)C(C)(C)/C=C/c2ccc3ccc(nc3c2)N(C)NC(=O)[C@@H]2CCCN(N2)C(=O)[C@H](CCC(=O)NCc2cccnc2)NC1=O [Compound (65)] | 0.014 µM | 0.022 µM | 20 | 0.90 | 51% | 
C[C@@H]1NC(=O)[C@H](CCl)OC(=O)C(C)(C)/C=C/c2ccc3ccc(nc3c2)N(C)NC(=O)[C@@H]2CCCN(N2)C1=O [Compound (53)] | 0.015 µM | 0.028 µM | 25 | 0.83 | 21% | 
C[C@@H]1NC(=O)C(Cc2ccc(C(=O)O)cc2)OC(=O)C(C)(C)/C=C/c2ccc3ccc(nc3c2)N(C)NC(=O)[C@@H]2CCCN(N2)C1=O (single isomer, unassigned) [Compound (40)] |  |  |  |  |  | CRC [10 μM] ([3]; listed as 40): 5; CRC [10 μM] (ratio vs CsA) ([3]; listed as 40): 0.33; SYSY [10 μM] % recovery ([4]; listed as 40): 51%
C[C@@H]1NC(=O)C(Cc2cccc(N)n2)OC(=O)C(C)(C)/C=C/c2ccc3ccc(nc3c2)N(C)NC(=O)[C@@H]2CCCN(N2)C1=O (single isomer, unassigned) [Compound (52)] |  |  |  |  |  | SYSY [10 μM] % recovery ([4]; listed as 52): 35%
C[C@@H]1NC(=O)[C@@H](CC2CCCNC2)OC(=O)C(C)(C)/C=C/c2ccc3ccc(nc3c2)N(C)NC(=O)[C@@H]2CCCN(N2)C1=O (single isomer, unassigned) [Compound (30)] |  | 0.45 µM | 10 | 0.33 |  | SYSY [10 μM] % recovery ([4]; listed as 30): 10%
